Target: T1, Aurora A Kinase (Homo sapiens, UniProt O14965)
T1 sequence (O14965 1-403): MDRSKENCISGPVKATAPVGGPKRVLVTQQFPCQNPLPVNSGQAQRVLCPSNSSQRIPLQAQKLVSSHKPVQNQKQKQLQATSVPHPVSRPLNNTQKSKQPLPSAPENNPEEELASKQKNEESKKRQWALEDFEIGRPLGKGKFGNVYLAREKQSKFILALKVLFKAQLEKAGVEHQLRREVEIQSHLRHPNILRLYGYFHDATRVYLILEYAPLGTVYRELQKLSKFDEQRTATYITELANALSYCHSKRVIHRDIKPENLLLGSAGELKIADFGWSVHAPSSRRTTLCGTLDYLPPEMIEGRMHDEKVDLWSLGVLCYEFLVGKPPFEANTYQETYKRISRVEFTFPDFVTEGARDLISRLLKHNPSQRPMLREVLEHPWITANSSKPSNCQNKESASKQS
Experiment: Determination of inhibition of AIK (Aurora A kinase) by direct fluorescence polarization (IMAP)
Format: biochemical
Settings: read-out: IC50 of Exemplified Compounds Against Aurora A Kinase
Method: A. Determination of Inhibition of AIK
The inhibitory properties of compounds relative to AIK may be determined by the Direct Fluorescence Polarization detection method (FP) using a Greiner small volume black 384-well-plate format under the following reaction conditions: 50 mM Hepes pH 7.3, 10 mM MgCl2, 10 mM NaCl, 1 mM DTT, 0.01% Brij35, 100 nM Fluorescein-LRRASLG peptide (provided by SYNPEP), 5% DMSO, 2.5 uM ATP. Detection of the reaction product is performed by addition of IMAP binding reagent (Molecular Devices). Reaction product may be determined quantitatively by FP using an Analyst HT plate reader (Molecular Devices) with an excitation wavelength at 485 nm and emission at 530 nm and using a Fluorescein 505 dichroic mirror.
The assay reaction may be initiated as follows: 2 ul of (3×) 300 nM Fl-Peptide/7.5 uM ATP was added to each well of the plate, followed by the addition of 2 ul of (3×) inhibitor (2.5 fold serial dilutions for 11 data points for each inhibitor) containing 15% DMSO. 2 ul of (3×) 7.5 nM AIK solution may be added to initiate the reaction (final enzyme concentration was 2.5 nM for AIK). The reaction mixture may then be incubated at room temperature for 45 min, and quenched and developed by addition of 20 ul of 1 to 400 diluted IMAP binding reagent in 1× proprietary IMAP binding buffer. Fluorescence polarization readings of the resulting reaction mixtures may be measured after a 60-minute incubation at room temperature.
IC50 values may be calculated by non-linear curve fitting of the compound concentrations and fluorescent polarization values to the standard IC50 equation.

| IC50 | SMILES |
| --- | --- |
| ≤ 50 nM | CCS(=O)(=O)n1ccc2ccc(-c3nc(Nc4cc(C)[nH]n4)c4cc(C)sc4n3)cc21 [Example 3, 2-(1-(ethylsulfonyl)-1H-indol-6-yl)-6-methyl-N-(5-methyl-1H-pyrazol-3-yl)thieno[2,3-d]pyrimidin-4-amine] |
| ≤ 50 nM | CCS(=O)(=O)n1cc(CN(C)C)c2ccc(-c3nc(Nc4cc(C)[nH]n4)c4cc(C)sc4n3)cc21 [Example 4, 2-(3-((dimethylamino)methyl)-1-(ethylsulfonyl)-1H-indol-6-yl)-6-methyl-N-(5-methyl-1H-pyrazol-3-yl)thieno[2,3-d]pyrimidin-4-amine] |
| ≤ 50 nM | CCS(=O)(=O)c1cccc(-c2nc(Nc3cc(C)[nH]n3)c3cscc3n2)c1 [Example 5, [2-(3-Ethanesulfonyl-phenyl)-thieno[3,4-d]pyrimidin-4-yl]-(5-methyl-1H-pyrazol-3-yl)-amine] |
| ≤ 50 nM | CCS(=O)(=O)n1ccc2ccc(-c3nc(Nc4cc(C)[nH]n4)c4cscc4n3)cc21 [Example 6, [2-(1-Ethanesulfonyl-1H-indol-6-yl)-thieno[3,4-d]pyrimidin-4-yl]-(5-methyl-1H-pyrazol-3-yl)-amine] |
| ≤ 50 nM | CCS(=O)(=O)c1cccc(-c2nc(Nc3cc(C)[nH]n3)c3cc(C)sc3n2)c1 [Example 7, 2-(3-(ethylsulfonyl)phenyl)-6-methyl-N-(5-methyl-1H-pyrazol-3-yl)thieno[2,3-d]pyrimidin-4-amine] |
| ≤ 50 nM | Cc1cc(Nc2nc(Sc3ccc(NC(=O)C4CC4)cc3)nc3sc(C)cc23)n[nH]1 [Example 8, N-(4-(6-Methyl-4-(5-methyl-1H-pyrazol-3-ylamino)thieno[2,3-d]pyrimidin-2-ylthio)phenyl)cyclopropanecarboxamide] |
